Measurements as given in patent US9745310B2 (SK BIOPHARMACEUTICALS CO., LTD., priority 2015, dated 2017).

Biological target: human mGluR5 receptor (Homo sapiens (Human), UniProt P41594)
Test: Calcium influx assay based on fluorescence (mGluR5 PAM activity)
Conditions: human mGluR5 receptor-overexpressed HEK293 cell line; L-glutamate EC20; Fluo-4, FLIPR
Experimental: Efficacy as a positive allosteric modulator (PAM) of mGluR5 of the compounds of the Examples was tested as follows:
Calcium Influx Assay Based on Fluorescence
Ca^2+ (calcium) influx assay is an experiment for measuring the activity of a positive allosteric modulator of mGluR5 receptor in which human mGluR5 receptor-overexpressed HEK293 cell line is used. The day before the experiment, cells were prepared in a cell culture medium (DMEM, 5% FBS) with the density of 80,000/well, and 100 μl of cells were dispensed into each well of a poly-D-lysine-coated 96-well plate. Cells were incubated in a 5% CO2, 37° C. incubator. The next day, the cell culture medium was removed from the plate, and 100 μl of 1× Fluo-4 calcium indicator diluted with a buffer (1× Hank's balanced salt solution, 20 mM HEPES, 2.5 mM probenecid) were added to each well and incubated at 37° C. for 1 hour. The compound stock solutions were prepared in 100% DMSO, and the compounds were serially diluted with a ¼ dilution to 6 or 7 concentrations (final concentration was 10 μM to 10 nM). The diluted compound solutions were added to the plate with 0.1 to 0.2% of final DMSO concentration. 1 hour after the addition of Fluo-4 calcium indicator, L-glutamate (EC20 concentration) and the test compound solutions were added to the plate, and Ca^2+ reaction was then measured by FLIPR at room temperature. The activity of the compounds was standardized on the basis of the results of maximum value-minimum value of fluorescent reaction, and the activity value was calculated on the basis that no activity on glutamate EC20 is 0% and the reaction to glutamate maximum value is 100%.

Chain of human mGluR5 receptor (P41594 21-1212): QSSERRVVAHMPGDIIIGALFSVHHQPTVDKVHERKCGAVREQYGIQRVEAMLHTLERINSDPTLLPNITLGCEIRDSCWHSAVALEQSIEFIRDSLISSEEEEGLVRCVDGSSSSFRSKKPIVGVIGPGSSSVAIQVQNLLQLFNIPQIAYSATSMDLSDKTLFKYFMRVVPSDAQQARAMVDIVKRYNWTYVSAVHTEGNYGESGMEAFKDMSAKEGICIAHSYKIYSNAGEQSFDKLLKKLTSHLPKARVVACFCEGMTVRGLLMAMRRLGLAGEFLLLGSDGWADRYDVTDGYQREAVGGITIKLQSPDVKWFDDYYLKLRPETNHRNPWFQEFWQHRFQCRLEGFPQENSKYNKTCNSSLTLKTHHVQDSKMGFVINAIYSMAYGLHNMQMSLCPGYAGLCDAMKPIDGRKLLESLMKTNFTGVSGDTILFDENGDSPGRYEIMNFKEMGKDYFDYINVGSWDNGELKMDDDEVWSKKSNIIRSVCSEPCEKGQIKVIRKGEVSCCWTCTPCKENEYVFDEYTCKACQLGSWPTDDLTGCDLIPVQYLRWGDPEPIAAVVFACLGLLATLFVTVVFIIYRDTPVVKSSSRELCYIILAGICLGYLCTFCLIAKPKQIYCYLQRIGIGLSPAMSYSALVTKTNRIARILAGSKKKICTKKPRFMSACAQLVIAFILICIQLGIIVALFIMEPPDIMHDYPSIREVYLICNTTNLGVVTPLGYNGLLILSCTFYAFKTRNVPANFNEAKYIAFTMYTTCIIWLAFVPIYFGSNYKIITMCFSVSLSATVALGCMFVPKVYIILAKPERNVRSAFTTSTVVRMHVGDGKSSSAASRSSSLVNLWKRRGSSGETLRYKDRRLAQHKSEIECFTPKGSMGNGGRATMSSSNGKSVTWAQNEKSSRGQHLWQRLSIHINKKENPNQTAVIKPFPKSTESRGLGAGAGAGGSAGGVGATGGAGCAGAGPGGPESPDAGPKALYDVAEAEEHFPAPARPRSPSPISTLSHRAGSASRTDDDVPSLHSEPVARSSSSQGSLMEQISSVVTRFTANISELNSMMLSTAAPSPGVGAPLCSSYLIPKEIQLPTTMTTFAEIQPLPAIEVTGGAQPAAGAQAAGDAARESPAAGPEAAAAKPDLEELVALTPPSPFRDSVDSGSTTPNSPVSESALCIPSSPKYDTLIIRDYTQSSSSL

Compound	EC50 [nM]
Cc1c(F)cccc1-c1cnc2nc(COc3ccc(F)cn3)cn2c1 [Example 124, 6-(3-fluoro-2-methyl-phenyl)-2-[(5-fluoro-2-pyridyl)oxymethyl)imidazo[1,2-a]pyrimidine]	100 to 500
Nc1cc(F)ccc1-c1cnc2nc(COc3cccc(F)c3)cn2c1 [Example 101, 5-fluoro-2-[2-[(3-fluorophenoxy)methyl]imidazo[1,2-a]pyrimidin-6-yl]aniline]	100 to 500
Nc1cc(F)ccc1-c1cnc2nc(COc3ccc(F)cc3)cn2c1 [Example 77, 5-fluoro-2-[2-[(4-fluorophenoxy)methyl]imidazo[1,2-a]pyrimidin-6-yl]aniline]	100 to 500
Cc1ccccc1-c1cnc2nc(COc3ccccn3)cn2c1 [Example 103, 6-(2-methylphenyl)-2-(pyridin-2-yloxymethyl)imidazo[1,2-a]pyrimidine]	100 to 500
NC(=O)OCc1cc(F)ccc1-c1cnc2nc(COc3ccccn3)cn2c1 [Example 195, [5-fluoro-2-[2-(2-pyridyloxymethyl)imidazo[1,2-a]pyrimidin-6-yl]phenyl]methyl carbamate]	100 to 500
Fc1cccc(-c2cnc3nc(COc4ccccn4)cn3c2)c1F [Example 107, 6-(2,3-difluorophenyl)-2-(pyridin-2-yloxymethyl)imidazo[1,2-a]pyrimidine]	500 to 1000
Fc1ccc(-c2cnc3nc(COc4ccccc4)cn3c2)cc1F [Example 19, 6-(3,4-difluorophenyl)-2-phenoxymethylimidazo[1,2-a]pyrimidine]	500 to 1000
Fc1cccc(OCc2cn3cc(-c4ccncc4Cl)cnc3n2)c1 [Example 45, 6-(3-chloropyridin-4-yl)-2-(3-fluorophenoxymethyl)imidazo[1,2-a]pyrimidine]	100 to 500
Cc1cc(F)ccc1-c1cnc2nc(COc3cccc(F)n3)cn2n1 [Example 191]	500 to 1000
COc1cc(-c2cnc3nc(COc4ccccc4)cn3c2)c(F)cc1F [Example 28, 6-(2,4-difluoro-5-methoxyphenyl)-2-phenoxymethylimidazo[1,2-a]pyrimidine]	500 to 1000
Nc1cc(-c2cnc3nc(COc4ccccn4)cn3c2)ccc1F [Example 134, 2-fluoro-5-[2-(2-pyridyloxymethyl)imidazo[1,2-a]pyrimidin-6-yl]aniline]	100 to 500
Fc1ccc(-c2cnc3nc(COc4cncc(F)c4)cn3c2)cc1 [Example 171, 6-(4-fluorophenyl)-2-[(5-fluoro-3-pyridyl)oxymethyl)imidazo[1,2-a]pyrimidine]	100 to 500
Cc1cccc(C)c1-c1cnc2nc(COc3ccc(F)cc3)cn2c1 [Example 50, 6-(2,6-dimethylphenyl)-2-(4-fluorophenoxymethyl)imidazo[1,2-a]pyrimidine]	500 to 1000
COc1cc(F)ccc1-c1cnc2nc(COc3ccncc3)cn2c1 [Example 151, 6-(4-fluoro-2-methoxyphenyl)-2-(pyridin-4-yloxymethyl)imidazo[1,2-a]pyrimidine]	100 to 500
O=Cc1ccc(-c2cnc3nc(COc4ccccn4)cn3c2)c(C(F)(F)F)c1 [Example 144, 4-[2-(2-pyridyloxymethyl)imidazo[1,2-a]pyrimidin-6-yl]-3-(trifluoromethyl)benzaldehyde]	500 to 1000
Cc1ccc(F)cc1-c1cnc2nc(COc3ccccn3)cn2c1 [Example 108, 6-(5-fluoro-2-methylphenyl)-2-(pyridin-2-yloxymethyl)imidazo[1,2-a]pyrimidine]	500 to 1000
Cc1ccccc1-c1cnc2nc(COc3ccnc(F)c3)cn2n1 [Example 185, 2-(2-methylphenyl)-6-((2-fluoropyridin-4-yloxy)methyl)imidazo[1,2-b][1,2,4]triazine]	100 to 500

Compound	EC50 [nM]
Cc1cc(F)ccc1-c1cnc2nc(COc3ccc(F)cn3)cn2c1 [Example 114, 6-(4-fluoro-2-methyl-phenyl)-2-[(5-fluoro-2-pyridyl)oxymethyl)imidazo[1,2-a]pyrimidine]	100 to 500
Cc1cc(Cl)ccc1-c1cnc2nc(COc3ccccn3)cn2n1 [Example 190, 2-(4-chloro-2-methyl-phenyl)-6-(2-pyridyloxymethyl)imidazo[1,2-b][1,2,4]triazine]	100 to 500
COc1cc(F)ccc1-c1cnc2nc(COc3ccccc3)cn2c1 [Example 20, 6-(2-methoxy-4-fluorophenyl)-2-phenoxymethylimidazo[1,2-a]pyrimidine]	100 to 500
Oc1ccc(-c2cnc3nc(COc4ccc(F)cc4)cn3c2)cn1 [Example 90, 5-[2-[(4-fluorophenoxy)methyl]imidazo[1,2-a]pyrimidin-6-yl]pyridin-2-ol]	100 to 500
Oc1ccc(OCc2cn3cc(-c4ccc(F)cc4)cnc3n2)cc1 [Example 52, 4-[[6-(4-fluorophenyl)imidazo[1,2-a]pyrimidin-2-yl]methoxy]phenol]	100 to 500
Oc1ccccc1-c1cnc2nc(COc3ccc(F)cc3)cn2c1 [Example 63, 2-[2-[(4-fluorophenoxy)methyl]imidazo[1,2-a]pyrimidin-6-yl]phenol]	100 to 500
COc1cc(C#N)ccc1-c1cnc2nc(COc3ccccc3)cn2c1 [Example 23, 6-(4-cyano-2-methoxyphenyl)-2-phenoxymethylimidazo[1,2-a]pyrimidine]	100 to 500
Oc1cc(F)ccc1-c1cnc2nc(COc3ccc(F)cc3)cn2c1 [Example 58, 5-fluoro-2-[2-[(4-fluorophenoxy)methyl]imidazo[1,2-a]pyrimidin-6-yl]phenol]	100 to 500
COCc1cc(F)ccc1-c1cnc2nc(COc3ccccn3)cn2c1 [Example 141, 6-[4-fluoro-2-(methoxymethyl)phenyl]-2-(2-pyridyloxymethyl)imidazo[1,2-a]pyrimidine]	100 to 500
Fc1cccc(OCc2cn3cc(-c4ccnc(F)c4)cnc3n2)c1 [Example 79, 2-[(3-fluorophenoxy)methyl]-6-(2-fluoro-4-pyridyl)imidazo[1,2-a]pyrimidine]	100 to 500
COc1cc(F)ccc1-c1cnc2nc(COc3cccnc3)cn2c1 [Example 147, 6-(4-fluoro-2-methoxyphenyl)-2-(pyridin-3-yloxymethyl)imidazo[1,2-a]pyrimidine]	500 to 1000
Fc1cccc(OCc2cn3cc(-c4ccc(F)cc4F)cnc3n2)c1 [Example 41, 6-(2,4-difluorophenyl)-2-(3-fluorophenoxymethyl)imidazo[1,2-a]pyrimidine]	100 to 500
Cc1cc(F)ccc1-c1cnc2nc(COc3cccnc3F)cn2c1 [Example 159, 6-(4-fluoro-2-methylphenyl)-2-(2-fluoropyridin-3-yloxymethyl)imidazo[1,2-a]pyrimidine]	500 to 1000
Cc1ccc(-c2cnc3nc(COc4ccc(F)cn4)cn3c2)c(C)c1 [Example 128, 6-(2,4-dimethylphenyl)-2-[(5-fluoro-2-pyridyl)oxymethyl)imidazo[1,2-a]pyrimidine]	500 to 1000
Fc1ccc(-c2cnc3nc(COc4ccccc4)cn3c2)c(Cl)c1 [Example 15, 6-(2-chloro-4-fluorophenyl)-2-phenoxymethylimidazo[1,2-a]pyrimidine]	100 to 500
COc1ccc(-c2cnc3nc(COc4ccccc4)cn3c2)cn1 [Example 30, 6-(6-methoxypyridin-3-yl)-2-phenoxymethylimidazo[1,2-a]pyrimidine]	500 to 1000
Fc1ccc(-c2cnc3nc(COc4ccccc4)cn3c2)c(C(F)(F)F)c1 [Example 18, 6-(4-fluoro-2-trifluoromethylphenyl)-2-phenoxymethylimidazo[1,2-a]pyrimidine]	100 to 500
